Patent US11708348B2, “Protease inhibitors for treatment of coronavirus infections” (The Scripps Research Institute, priority 2021, dated 2023)

These molecules were tested on SARS-CoV-2 strain USA-WA1/2020 (assay: microbe, parasite or virus in culture). Conditions: HeLa-ACE2 cells, SARS-CoV-2 infection, 24 h; class symbols; read-out: EC50, uM (Hela).
Type: cell-based

Row | SMILES | EC50 [µM]
1 | COc1cccc2[nH]c(C(=O)N[C@@H](CC(C)C)C(=O)N[C@@H](C[C@@H]3CCNC3=O)C(=O)COC(=O)c3c(Cl)cccc3Cl)cc12 [Compound 8, (S)-3-((S)-2-(4-methoxy-1H-indole-2-carboxamido)-4-methylpentanamido)-2-oxo-4-((S)-2-oxopyrrolidin-3-yl)butyl 2,6-dichlorobenzoate] | 0.05 to 0.2

Same assay, conditions: Severe acute respiratory syndrome coronavirus 2, HeLa-ACE2, 24 h, HeLa-ACE2 cells, SARS-CoV-2 infection, 24 h; class symbols; read-out: EC50, uM (Hela)

Row | SMILES | EC50 [µM]
2 | COc1cccc(C)c1NC(=O)C(=O)N[C@@H](CC(C)C)C(=O)N[C@@H](C[C@@H]1CCNC1=O)C(=O)COC(F)(F)F [Compound 165, N1-(2-methoxy-6-methylphenyl)-N2-((S)-4-methyl-1-oxo-1-(((S)-3-oxo-1-((S)-2-oxopyrrolidin-3-yl)-4-(trifluoromethoxy)butan-2-yl)amino)pentan-2-yl)oxalamide] | < 0.05
3 | CC(C)C[C@H](NC(=O)[C@H](O)C(C)(C)C)C(=O)N[C@@H](C[C@@H]1CCNC1=O)C(=O)COC(F)(F)F [Compound 341, (S)-2-((R)-2-hydroxy-3,3-dimethylbutanamido)-4-methyl-N-((S)-3-oxo-1-((S)-2-oxopyrrolidin-3-yl)-4-(trifluoromethoxy)butan-2-yl)pentanamide] | 0.05 to 0.2
4 | CC(C)C[C@H](NC(=O)C(=O)NC1CCCCC1)C(=O)N[C@@H](C[C@@H]1CCNC1=O)C(=O)COC(F)(F)F [Compound 163, N1-cyclohexyl-N2-((S)-4-methyl-1-oxo-1-(((S)-3-oxo-1-((S)-2-oxopyrrolidin-3-yl)-4-(trifluoromethoxy)butan-2-yl)amino)pentan-2-yl)oxalamide] | < 0.05
5 | CC(C)C[C@H](NC(=O)C(=O)NCCc1ccccc1)C(=O)N[C@@H](C[C@@H]1CCNC1=O)C(=O)COc1c(F)c(F)cc(F)c1F [Compound 41, N1-((S)-4-methyl-1-oxo-1-(((S)-3-oxo-1-((S)-2-oxopyrrolidin-3-yl)-4-(2,3,5,6-tetrafluorophenoxy)butan-2-yl)amino)pentan-2-yl)-N2-phenethyloxalamide] | 0.05 to 0.2
6 | O=C1NCC[C@H]1C[C@H](NC(=O)[C@@H]1[C@H]2CCC[C@H]2CN1C(=O)C1OCCC1(F)F)C(=O)COC(F)(F)F (stereo partly drawn) [Compound 323, (1S,3aR,6aS)-2-(3,3-difluorotetrahydrofuran-2-carbonyl)-N-((S)-3-oxo-1-((S)-2-oxopyrrolidin-3-yl)-4-(trifluoromethoxy)butan-2-yl)octahydrocyclo-penta[c]pyrrole-1-carboxamide] | 0.05 to 0.2
7 | COC(CC(C)C)C(=O)N1CC2(CC2)C[C@H]1C(=O)N[C@@H](C[C@@H]1CCNC1=O)C(=O)COC(F)(F)F (stereo partly drawn) [Compound 338, (6S)-5-(2-methoxy-4-methylpentanoyl)-N-((S)-3-oxo-1-((S)-2-oxopyrrolidin-3-yl)-4-(trifluoromethoxy)butan-2-yl)-5-azaspiro[2.4]heptane-6-carboxamide] | < 0.05
8 | O=C(Nc1ccccc1Cl)C(=O)N[C@@H](CC1CCC(F)(F)CC1)C(=O)N[C@@H](C[C@@H]1CCNC1=O)C(=O)COc1c(F)c(F)cc(F)c1F [Compound 88, N1-(2-chlorophenyl)-N2-((S)-3-(4,4-difluorocyclohexyl)-1-oxo-1-(((S)-3-oxo-l-((S)-2-oxopyrrolidin-3-yl)-4-(2,3,5,6-tetrafluorophenoxy)butan-2-yl)amino)propan-2-yl)oxalamide] | 0.05 to 0.2
9 | O=C1NCC[C@H]1C[C@H](NC(=O)[C@@H]1CC2(CC2)CN1C(=O)C(O)c1cc(F)c(F)c(F)c1)C(=O)COC(F)(F)F (stereo partly drawn) [Compound 399, (6S)-5-(2-hydroxy-2-(3,4,5-trifluorophenyl)acetyl)-N-((S)-3-oxo-1-((S)-2-oxopyrrolidin-3-yl)-4-(trifluoromethoxy)butan-2-yl)-5-azaspiro[2.4]heptane-6-carboxamide] | 0.05 to 0.2

Same assay, conditions: Severe acute respiratory syndrome coronavirus 2, HeLa-ACE2, 24 h, HeLa-ACE2 cells, SARS-CoV-2 infection, 24 h; given as bound; read-out: EC50, uM (Hela)

Row | SMILES | EC50 [µM]
10 | C[C@@H]1C[C@H]2[C@H](C[C@@H](C(=O)N[C@@H](C[C@@H]3CCNC3=O)C(=O)COC(F)(F)F)N2C(=O)C(=O)NC(C)(C)C)O1 [Compound 551, (2R,3aS,5S,6aS)-4-(2-(tert-butylamino)-2-oxoacetyl)-2-methyl-N-((S)-3-oxo-1-((S)-2-oxopyrrolidin-3-yl)-4-(trifluoromethoxy)butan-2-yl)hexahydro-2H-furo[3,2-b]pyrrole-5-carboxamide] | > 1

Same assay, conditions: Severe acute respiratory syndrome coronavirus 2, HeLa-ACE2, 24 h, HeLa-ACE2 cells, SARS-CoV-2 infection, 24 h; read-out: EC50, uM (Hela)

Row | SMILES | EC50 [µM]
11 | CC(C)(C)NC(=O)C(=O)N1C[C@H]2[C@@H]([C@H]1C(=O)N[C@@H](C[C@@H]1CCNC1=O)C(=O)COC(F)(F)F)C21CC1 [Compound 553, (1R,2S,5S)-3-(2-(tert-butylamino)-2-oxoacetyl)-N-((S)-3-oxo-1-((S)-2-oxopyrrolidin-3-yl)-4-(trifluoromethoxy)butan-2-yl)-3-azaspiro-[bicyclo[3.1.0]hexane-6,1'-cyclopropane]-2-carboxamide] | 0.05 to 0.2
12 | CC(C)C[C@H](NC(=O)c1ncon1)C(=O)N[C@@H](C[C@@H]1CCNC1=O)C(=O)COC(F)(F)F [Compound 580, N-((S)-4-methyl-1-oxo-1-(((S)-3-oxo-1-((S)-2-oxopyrrolidin-3-yl)-4-(trifluoromethoxy)butan-2-yl)amino)pentan-2-yl)-1,2,4-oxadiazole-3-carboxamide] | 0.2 to 0.5
13 | CC(C)(NC(=O)C(=O)N1C[C@@H]2CCC[C@@H]2[C@H]1C(=O)N[C@@H](C[C@@H]1CCNC1=O)C(=O)COC(F)(F)F)C(F)(F)F [Compound 526, (1S,3aR,6aS)-N-((S)-3-oxo-1-((S)-2-oxopyrrolidin-3-yl)-4-(trifluoromethoxy)butan-2-yl)-2-(2-oxo-2-((1,1,1-trifluoro-2-methylpropan-2-yl)amino)acetyl)-octahydrocyclopenta[c]-pyrrole-1-carboxamide] | < 0.05
14 | Cc1ccccc1NC(=O)C(=O)N1CC2(CC2)C[C@H]1C(=O)N[C@@H](C[C@@H]1CCNC1=O)C(=O)COC(F)(F)F [Compound 527, (S)-N-((S)-3-oxo-1-((S)-2-oxopyrrolidin-3-yl)-4-(trifluoromethoxy)butan-2-yl)-5-(2-oxo-2-(o-tolylamino)acetyl)-5-azaspiro[2.4]heptane-6-carboxamide] | < 0.05
15 | CC(C)C[C@@H](O)C(=O)N1C[C@H](c2ccccc2)C[C@H]1C(=O)N[C@@H](C[C@@H]1CCNC1=O)C(=O)COC(F)(F)F [Compound 761, (2S,4S)-1-((R)-2-hydroxy-4-methylpentanoyl)-N-((S)-3-oxo-1-((S)-2-oxopyrrolidin-3-yl)-4-(trifluoromethoxy)butan-2-yl)-4-phenylpyrrolidine-2-carboxamide] | < 0.05
16 | COc1cccc2[nH]c(C(=O)N3C[C@@H]4CCC[C@@H]4[C@H]3C(=O)N[C@@H](C[C@@H]3CCNC3=O)C(=O)COC(F)(F)F)cc12 [Compound 608, (1S,3aR,6aS)-2-(4-methoxy-1H-indole-2-carbonyl)-N-((S)-3-oxo-1-((S)-2-oxopyrrolidin-3-yl)-4-(trifluoromethoxy)butan-2-yl)octahydrocyclopenta[c]pyrrole-1-carboxamide] | < 0.05

Same assay, conditions: Severe acute respiratory syndrome coronavirus 2, HeLa-ACE2, 24 h; read-out: EC50, uM (Hela)

Row | SMILES | EC50 [µM]
17 | CC(C)C[C@H](NC(=O)C12CC(NC(=O)C(F)(F)F)(CO1)C2)C(=O)N[C@@H](C[C@@H]1CCNC1=O)C(=O)COC(F)(F)F [Compound 314, N-((S)-4-methyl-1-oxo-1-(((S)-3-oxo-1-((S)-2-oxopyrrolidin-3-yl)-4-(trifluoromethoxy)butan-2-yl)amino)pentan-2-yl)-4-(2,2,2-trifluoroacetamido)-2-oxabicyclo[2.1.1]-hexane-1-carboxamide] | 0.2 to 0.5
